Measured values: paper PMC3726442 (PLoS ONE, 2013)

Assays:
estrogen receptor = settings: cited from earlier work
[1] = cited from earlier work
[2] = Plasma concentrations of tamoxifen and its metabolites in breast cancer patients on tamoxifen, by HPLC-tandem mass spectrometry
Excerpt: One hundred and thirty five Caucasian patients of Spanish descent recently diagnosed with BC were recruited from the center Fundación Tejerina-Centro de Patología de la Mama (Madrid). Premenopausal and postmenopausal women were enrolled when started on TAM as standard adjuvant therapy after undergoing primary surgery, radiation and adjuvant chemotherapy. Patients were excluded if they had started TAM therapy simultaneously with either adjuvant chemotherapy or adjuvant radiation therapy (or both) or if they were undergoing other adjuvant endocrine therapies. Patients who were pregnant or breast-feeding were also excluded from the study. […] Blood samples were collected within 3 to 60 months of initiating TAM treatment.
Venous blood was collected from all 135 subjects before taking their daily 20- mg dose of TAM. Ten milliliters of heparin plasma were separated by centrifugation and immediately stored at −20°C until analysis. In addition, one milliliter of an EDTA blood sample was taken for subsequent DNA extraction and genotyping. DNA was isolated from peripheral leukocytes using a QIAamp DNA Blood Mini Kit® (Qiagen, Madrid, Spain) according to the manufacturer’s instructions. The DNA concentration was determined and adjusted to 2–20 ng/ µL.
TAM and its metabolites were separated and quantified by high-pressure liquid chromatography-tandem mass spectrometry using an Agilent HPLC 1200 system. HPLC experiments were performed using a binary pump G1312A, a G1316A column oven, G1379B degasser and an automatic injector H-ALS G1367B. Mobile phase A and phase B consisted of 0.1% formic acid in water and acetonitrile, respectively. Mobile phases A and B were pumped through a ZORBAX Eclipse XDB-C18 column (150 mm×2.1 mm I.D., 3.5 µm, Agilent USA) at a flow rate of 0.2 mL/min using the gradient shown in Table 1. Separation was conducted at 30°C. 15- µL aliquots were injected and the autosampler needle was rinsed in acetonitrile/water solution (1∶1). The total run time was 20 min. During the first 4.0 and last 2.0 min, the eluate was removed using a divert valve to avoid endogenous compounds entering the mass spectrometer.
As a detector, we used an A 6410 Triple Quadrupole mass spectrometer (Agilent Technologies, USA) equipped with a heated electrospray ionization source (Thermo Fisher Scientific, Waltham, MA, USA) operating in positive ion mode. For quantification, multiple reaction monitoring (MRM) chromatograms were acquired using Mass Hunter software version B.01.04 (Agilent Technologies, USA). Positive ions were created at atmospheric pressure. Quadrupoles operated at unit resolution (0.7 Da).
A 300- µL volume of 1% formic acid in acetonitrile containing internal standards was added to a 100- µL serum aliquot. After vortexing and centrifugation, the clear supernatant was transferred to a HybridSPE column (Supelco) and the eluents stored at 2–8°C until analysis. Samples were analyzed in triplicate.
Descriptive statistics were calculated using standard methods. Metabolic ratios were calculated as the concentration of substrate/concentration of metabolite. The non-normal distribution of data was confirmed by the Kolmogorov-Smirnov test. Levels of TAM, metabolites and ratios between genotype groups were compared using Wilcoxon-Mann-Whitney or Kruskal-Wallis tests. All statistical tests (two-sided) were performed using SPSS software (version 18.0 SPSS, Chicago, IL). Significance was set at a p<0.05.

[3] = all samples analyzed, n = 125, before daily 20 mg TAM dose

endoxifen levels in wt/wt CYP2D6 relative to v/v CYP2D6 patients ([2]; CYP2D6 genotype subgroups, Figure 1): over two-fold
mean plasma concentration (±SD) [2, 3]: 24.75 ± 19.37 ng/mL
median plasma concentration [2, 3]: 19.11 ng/mL
mean concentration relative to the 4OH-TAM mean concentration ([2]; all samples, n = 125): almost three times
plasma concentration, mean ±SD ([2]; genotype CYP2D6 I/I, n = 1): 9.53 ± 0.00 ng/mL
plasma concentration, median ([2]; genotype CYP2D6 I/I, n = 1): 9.53 ng/mL
plasma concentration, range ([2]; genotype CYP2D6 I/I, n = 1): (9.53–9.53) ng/mL
plasma concentration, mean ±SD ([2]; genotype CYP2D6 I/P, n = 8): 12.01 ± 5.84 ng/mL
plasma concentration, median ([2]; genotype CYP2D6 I/P, n = 8): 10.00 ng/mL
plasma concentration, range ([2]; genotype CYP2D6 I/P, n = 8): (4.46–21.02) ng/mL
plasma concentration, mean ±SD ([2]; genotype CYP2D6 P/P, n = 2): 8.71 ± 6.41 ng/mL
plasma concentration, median ([2]; genotype CYP2D6 P/P, n = 2): 8.71 ng/mL
plasma concentration, range ([2]; genotype CYP2D6 P/P, n = 2): (4.18–13.24) ng/mL
plasma concentration, mean ±SD ([2]; genotype CYP2D6 wt/I, n = 4): 26.87 ± 17.31 ng/mL
plasma concentration, median ([2]; genotype CYP2D6 wt/I, n = 4): 20.64 ng/mL
plasma concentration, range ([2]; genotype CYP2D6 wt/I, n = 4): (14.01–52.20) ng/mL
plasma concentration, mean ±SD ([2]; genotype CYP2D6 wt/P, n = 26): 23.76 ± 25.21 ng/mL
plasma concentration, median ([2]; genotype CYP2D6 wt/P, n = 26): 14.57 ng/mL
plasma concentration, range ([2]; genotype CYP2D6 wt/P, n = 26): (5.01–107.10) ng/mL
plasma concentration, mean ±SD ([2]; genotype CYP2D6 wt/wt, n = 78): 26.47 ± 17.89 ng/mL
plasma concentration, median ([2]; genotype CYP2D6 wt/wt, n = 78): 21.21 ng/mL
plasma concentration, range ([2]; genotype CYP2D6 wt/wt, n = 78): (4.03–95.87) ng/mL
plasma concentration, mean ±SD ([2]; genotype CYP2D6 wtxN/P, n = 2): 36.09 ± 32.08 ng/mL
plasma concentration, median ([2]; genotype CYP2D6 wtxN/P, n = 2): 36.09 ng/mL
plasma concentration, range ([2]; genotype CYP2D6 wtxN/P, n = 2): (13.40–58.77) ng/mL
plasma concentration, mean ±SD ([2]; genotype CYP3A4 wt/*1B, n = 3): 22.31 ± 10.86 ng/mL
plasma concentration, median ([2]; genotype CYP3A4 wt/*1B, n = 3): 26.69 ng/mL
plasma concentration, range ([2]; genotype CYP3A4 wt/*1B, n = 3): (9.95–30.30) ng/mL
plasma concentration, mean ±SD ([2]; genotype CYP3A4 wt/*3, n = 2): 49.15 ± 21.86 ng/mL
plasma concentration, median ([2]; genotype CYP3A4 wt/*3, n = 2): 49.15 ng/mL
plasma concentration, range ([2]; genotype CYP3A4 wt/*3, n = 2): (33.69–64.61) ng/mL
plasma concentration, mean ±SD ([2]; genotype CYP3A4 wt/*17, n = 9): 19.86 ± 24.88 ng/mL
plasma concentration, median ([2]; genotype CYP3A4 wt/*17, n = 9): 11.94 ng/mL
plasma concentration, range ([2]; genotype CYP3A4 wt/*17, n = 9): (4.46–84.57) ng/mL
plasma concentration, mean ±SD ([2]; genotype CYP3A4 wt/wt, n = 107): 24.80 ± 19.03 ng/mL
plasma concentration, median ([2]; genotype CYP3A4 wt/wt, n = 107): 19.12 ng/mL
plasma concentration, range ([2]; genotype CYP3A4 wt/wt, n = 107): (4.03–107.10) ng/mL
plasma concentration, mean ±SD ([2]; genotype CYP3A5 *3/*3, n = 117): 25.10 ± 19.66 ng/mL
plasma concentration, median ([2]; genotype CYP3A5 *3/*3, n = 117): 19.12 ng/mL
plasma concentration, range ([2]; genotype CYP3A5 *3/*3, n = 117): (4.03–107.10) ng/mL
plasma concentration, mean ±SD ([2]; genotype CYP3A5 wt/*3, n = 6): 14.14 ± 7.56 ng/mL
plasma concentration, median ([2]; genotype CYP3A5 wt/*3, n = 6): 13.61 ng/mL
plasma concentration, range ([2]; genotype CYP3A5 wt/*3, n = 6): (5.40–23.01) ng/mL
plasma concentration, mean ±SD ([2]; genotype SULT1A1 *2/*2, n = 15): 28.68 ± 24.18 ng/mL
plasma concentration, median ([2]; genotype SULT1A1 *2/*2, n = 15): 19.82 ng/mL
plasma concentration, range ([2]; genotype SULT1A1 *2/*2, n = 15): (4.57–95.87) ng/mL
plasma concentration, mean ±SD ([2]; genotype SULT1A1 wt/*2, n = 46): 26.59 ± 19.97 ng/mL
plasma concentration, median ([2]; genotype SULT1A1 wt/*2, n = 46): 22.58 ng/mL
plasma concentration, range ([2]; genotype SULT1A1 wt/*2, n = 46): (4.18–107.10) ng/mL
plasma concentration, mean ±SD ([2]; genotype SULT1A1 wt/wt, n = 60): 22.43 ± 17.79 ng/mL
plasma concentration, median ([2]; genotype SULT1A1 wt/wt, n = 60): 17.47 ng/mL
plasma concentration, range ([2]; genotype SULT1A1 wt/wt, n = 60): (4.03–89.98) ng/mL
plasma concentration, mean ±SD ([2]; genotype SULT1A2 *2/*2, n = 16): 26.59 ± 23.20 ng/mL
plasma concentration, median ([2]; genotype SULT1A2 *2/*2, n = 16): 20.76 ng/mL
plasma concentration, range ([2]; genotype SULT1A2 *2/*2, n = 16): (4.18–95.87) ng/mL
plasma concentration, mean ±SD ([2]; genotype SULT1A2 *2/*3, n = 13): 34.61 ± 20.35 ng/mL
plasma concentration, median ([2]; genotype SULT1A2 *2/*3, n = 13): 32.02 ng/mL
plasma concentration, range ([2]; genotype SULT1A2 *2/*3, n = 13): (8.94–74.06) ng/mL
plasma concentration, mean ±SD ([2]; genotype SULT1A2 *3/*3, n = 5): 27.34 ± 21.30 ng/mL
plasma concentration, median ([2]; genotype SULT1A2 *3/*3, n = 5): 21.02 ng/mL
plasma concentration, range ([2]; genotype SULT1A2 *3/*3, n = 5): (12.13–64.61) ng/mL
plasma concentration, mean ±SD ([2]; genotype SULT1A2 wt/*2, n = 33): 28.84 ± 23.78 ng/mL
plasma concentration, median ([2]; genotype SULT1A2 wt/*2, n = 33): 23.22 ng/mL
plasma concentration, range ([2]; genotype SULT1A2 wt/*2, n = 33): (4.46–107.10) ng/mL
plasma concentration, mean ±SD ([2]; genotype SULT1A2 wt/*3, n = 16): 23.99 ± 15.32 ng/mL
plasma concentration, median ([2]; genotype SULT1A2 wt/*3, n = 16): 19.02 ng/mL
plasma concentration, range ([2]; genotype SULT1A2 wt/*3, n = 16): (7.80–51.61) ng/mL
plasma concentration, mean ±SD ([2]; genotype SULT1A2 wt/wt, n = 38): 17.21 ± 11.79 ng/mL
plasma concentration, median ([2]; genotype SULT1A2 wt/wt, n = 38): 14.78 ng/mL
plasma concentration, range ([2]; genotype SULT1A2 wt/wt, n = 38): (4.03–58.77) ng/mL
plasma concentration, mean ±SD ([2]; genotype SULT1E1 *2/*2, n = 5): 16.05 ± 8.07 ng/mL
plasma concentration, median ([2]; genotype SULT1E1 *2/*2, n = 5): 20.60 ng/mL
plasma concentration, range ([2]; genotype SULT1E1 *2/*2, n = 5): (6.74–23.01) ng/mL
plasma concentration, mean ±SD ([2]; genotype SULT1E1 wt/*2, n = 28): 24.30 ± 20.87 ng/mL
plasma concentration, median ([2]; genotype SULT1E1 wt/*2, n = 28): 18.04 ng/mL
plasma concentration, range ([2]; genotype SULT1E1 wt/*2, n = 28): (4.18–95.87) ng/mL
plasma concentration, mean ±SD ([2]; genotype SULT1E1 wt/wt, n = 88): 25.41 ± 19.51 ng/mL
plasma concentration, median ([2]; genotype SULT1E1 wt/wt, n = 88): 19.12 ng/mL
plasma concentration, range ([2]; genotype SULT1E1 wt/wt, n = 88): (4.03–107.10) ng/mL
mean plasma concentration (±SD) ([2]; patients not receiving CYP2D6 inhibitors): 25.30 ± 19.39 ng/mL
mean plasma concentration (±SD) ([2]; patients receiving CYP2D6 inhibitors concomitantly with TAM): 15.55 ± 17.77 ng/mL
Compound: CC/C(=C(\c1ccc(O)cc1)c1ccc(OCCNC)cc1)c1ccccc1 [Endoxifen, N-desmethyl-4-hydroxy-tamoxifen]
estrogen receptor affinity relative to TAM (estrogen receptor): 100 fold
serum levels relative to 4OH-TAM [1]: 10 fold
